Test results as given in PubChem BioAssay AID1996.
≈ marks a conversion by molar mass, not a printed value.

Details: buffer; pH 7.4; 200.0 µM

Point of comparison: `COc1ccccc1/C=C1\N=C(C(C)(C)C)OC1=O`, solubility kinetic 3 µg/mL (≈ 11.6 µM). Against it:
- COc1ccccc1Sc1nc(-c2ccccc2)ncc1OC — 2.7-fold lower, 1.1 µg/mL (≈ 3.39 µM)
- COc1ccc(Cl)cc1NC(=O)CN(C)Cc1cccs1 — the same, 3 µg/mL (≈ 9.24 µM)
- COc1ccc(CCNC(=O)c2cccnc2SC)cc1 — 5.3-fold higher, 16 µg/mL (≈ 52.9 µM)
- CCc1ccc(N2CN(Cc3cccnc3)CNC2=S)cc1 — higher, > 46.9 µg/mL
- O=C(O)/C=C/C(=O)Nc1ccc(Oc2ccccc2)cc1 — higher, > 42.5 µg/mL
- Cc1ccc(S(=O)(=O)NC(=O)COc2ccccc2)cc1 — higher, > 45.8 µg/mL
- O=C1CSc2ccc(C(=O)O)cc2N1 — higher, > 31.4 µg/mL
- COC(=O)C1=C(NC(=O)c2ccccc2[N+](=O)[O-])CCS1 — 2.8-fold higher, 8.4 µg/mL (≈ 27.2 µM)
- O=C(CNC(=O)c1ccc(Br)o1)Nc1ccccc1 — 2.2-fold higher, 6.7 µg/mL (≈ 20.7 µM)
- CCOc1ccccc1N1C(=O)CC(Sc2nccc(C)n2)C1=O (stereo not given) — higher, > 51.5 µg/mL
- Cc1cccc(NC(=O)c2cccc(C(=O)Nc3cccc(C)c3)n2)c1 — lower, < 0.2 µg/mL
- Cc1c(Cl)cccc1NC(=S)NC(=O)c1cncc(Br)c1 — 1.7-fold higher, 5.1 µg/mL (≈ 13.3 µM)
- CC(=O)c1c(C)nc(-c2ccccc2)nc1NC(=O)Cc1ccccc1 — 3.7-fold higher, 11 µg/mL (≈ 31.8 µM)
- CN1/C(=C\C=O)C(C)(C)c2ccccc21 — higher, > 30.2 µg/mL
- COc1cccc2[nH]c(C(=O)NCc3ccccc3)cc12.Cl — 3.6-fold higher, 10.9 µg/mL
- C=CCn1c(O)c(C(CC)=Nc2ccc(NC(C)=O)cc2)c(=O)[nH]c1=O — higher, > 53.5 µg/mL
- Cc1cc(NC(=O)NC(=O)c2ccccc2F)no1 — the same, 3 µg/mL (≈ 11.4 µM)
- COc1ccccc1-n1c(SCC(=O)NCc2ccc3c(c2)OCO3)nc2cc([N+](=O)[O-])ccc21 — within 1.5-fold, 3.1 µg/mL (≈ 6.29 µM)
- CC1CCN(C(=O)CNC(=O)Cc2ccccc2)CC1 — 14-fold higher, 40.9 µg/mL (≈ 149 µM)
- CC1CCN(C(=O)CSc2nnc(N)s2)CC1 — higher, > 40.9 µg/mL
- CCN(CC)c1ccc(NC(=O)c2cc3c(OC)cccc3[nH]2)cc1 — 6-fold lower, 0.5 µg/mL (≈ 1.48 µM)
- COc1ccccc1OCCCCN1CCC(C)CC1 — 10-fold higher, 30.7 µg/mL (≈ 111 µM)
- Cc1ccc(CCC(=O)Nc2ccc([N+](=O)[O-])cc2)o1 — 10-fold higher, 30.9 µg/mL (≈ 113 µM)
- CCN(CC)c1c([N+](=O)[O-])c(=O)n(CC)c2ccccc12 — 11-fold higher, 32.4 µg/mL (≈ 112 µM)
- N#CC(C#N)=C1NC2(CCCCC2)Cc2ccccc21 — 3.8-fold lower, 0.8 µg/mL (≈ 3.04 µM)
- O=C1NC(=O)/C(=C/c2cccc3ccccc23)S1 — higher, > 38.3 µg/mL
- O=C(NC1CCCC1)C1CCN(C(=O)c2ccccc2Cl)CC1 — higher, > 50.2 µg/mL
- N#C/C(=C\c1cccnc1)C(=O)Nc1ccc(Cl)cc1 — 1.9-fold higher, 5.7 µg/mL (≈ 20.1 µM)
- CCOc1ccccc1C(=O)NCC(=O)NCCCSc1ccccc1 — within 1.5-fold, 2.5 µg/mL (≈ 6.71 µM)
- CC(=O)N=c1sccn1CC(O)c1ccccc1 (stereo not given) — higher, > 39.3 µg/mL
- CCC(=O)N1CCN(c2ccccc2NC(=O)c2ccc([N+](=O)[O-])o2)CC1 — 11-fold higher, 32.4 µg/mL (≈ 87 µM)
- O=C(Nc1ccccc1Cl)c1ccccc1 — 6.4-fold higher, 19.2 µg/mL (≈ 82.9 µM)
- CCCCc1nc2cc(C(=O)NCc3cn(C)nc3C)ccc2o1 — higher, > 49 µg/mL
- FC(F)(F)c1cccc(CN2CCN(c3ncccn3)CC2)c1 — 2.9-fold higher, 8.7 µg/mL (≈ 27 µM)
- COc1cc2c(cc1OC)CN(C(=O)c1ccc(Cl)c(S(=O)(=O)N3CCCC3)c1)CC2 — higher, > 69.7 µg/mL
- COc1cc(N)c(Cl)cc1C(=O)OCC(=O)NC(=O)NCc1ccco1 — 1.8-fold higher, 5.3 µg/mL (≈ 13.9 µM)
- Cc1cc(NC(=O)c2ccc(F)cc2)no1 — 6.9-fold higher, 20.7 µg/mL (≈ 94 µM)
- COC(=O)c1ccc(/C=C/c2nc3ccccc3c(=O)[nH]2)cc1 — within 1.5-fold, 3.7 µg/mL (≈ 12.1 µM)
- CC(=O)Nc1cccc(C(=O)OCC(=O)NC(=O)c2ccccc2)c1 — within 1.5-fold, 3.5 µg/mL (≈ 10.3 µM)
- CC(C)N1CC(C(=O)Nc2cc(Cl)cc(Cl)c2)CC1=O (stereo not given) — higher, > 47.3 µg/mL
- COc1ccc(/C=C/C(=O)OC(C)CN2CCCCC2)cc1.Cl (stereo not given) — 16-fold higher, 49.4 µg/mL
- CC(C)N1CC(C(=O)Nc2cccc([N+](=O)[O-])c2)CC1=O (stereo not given) — higher, > 43.7 µg/mL
- Cc1onc(-c2ccccc2)c1CNC(=O)Nc1ccccc1 — higher, > 46.1 µg/mL
- O=C(CCCn1c(=O)[nH]c2ccccc2c1=O)Nc1ccc(F)cc1 — 2.6-fold higher, 7.7 µg/mL (≈ 22.6 µM)
- Cc1cc(=O)[nH]c(SCC(=O)NC2CCCCCC2)n1 — higher, > 44.3 µg/mL
- Cc1ccc(SCCCCN2CCOCC2)cc1.Cl — higher, > 45.3 µg/mL
- CCOC(=O)C(=CNc1cscc1S(=O)(=O)C(C)C)C(=O)OCC — 13-fold higher, 38.9 µg/mL (≈ 104 µM)
- Cc1ccccc1C(=O)N1CCC(C(=O)OCc2ccccn2)CC1 — higher, > 50.8 µg/mL
- CC(C)(CO)NCC#Cc1ccccc1.Cl — higher, > 36 µg/mL
- COc1ccccc1CNC(=O)CCc1cn(C)c2ccccc12 — 13-fold higher, 39.2 µg/mL (≈ 122 µM)
- Nc1nc(-c2ccc3c(c2)OCCO3)c(CC(=O)O)s1 — 14-fold higher, 41.1 µg/mL (≈ 141 µM)
- O=C(NCC1CCCO1)c1cnn2c(C(F)F)cc(C3CC3)nc12 (stereo not given) — higher, > 50.5 µg/mL
- CCCn1c(SCCC(=O)O)nc2ccccc21 — higher, > 39.7 µg/mL
- CCC(=O)Nc1sc2c(c1C#N)CCC2 — 4.1-fold higher, 12.3 µg/mL (≈ 55.8 µM)
- COC(=O)c1ccccc1NC(=O)CCn1c(=O)oc2ccccc21 — higher, > 51.1 µg/mL
- CCCOc1ccc(CC(=O)NCCc2ccccc2)cc1OC — 6.8-fold higher, 20.3 µg/mL (≈ 62 µM)
- CCC(=O)Nc1ccc(C=C(C(C)=O)C(C)=O)cc1 — higher, > 38.9 µg/mL
- COc1ccc(C(=O)Nc2ccc(NC(=O)Cc3ccccc3)cn2)cc1 — 7.5-fold lower, 0.4 µg/mL (≈ 1.11 µM)
- Nc1c([N+](=O)[O-])c(=O)oc2ccccc12 — higher, > 30.9 µg/mL
- COc1ccc(N2CCN(C(=O)c3cc(C)on3)CC2)cc1 — higher, > 45.2 µg/mL
- O=C(OCC(=O)N1CCC(Cc2ccccc2)CC1)c1cncc(Br)c1 — 3.3-fold higher, 9.9 µg/mL (≈ 23.7 µM)
- O=C(O)CSc1nc2c(c(C(F)(F)F)n1)CCCC2 — higher, > 43.8 µg/mL
- CN(Cc1cccs1)C(=O)CNC(=O)c1ccco1 — higher, > 41.7 µg/mL
- CCOc1ccc(S(=O)(=O)NC2CCCCC2C)cc1 (stereo not given) — 12-fold higher, 37.5 µg/mL (≈ 126 µM)
- CCN1C(=O)c2cccc3c(S(=O)(=O)N4CCNCC4)ccc1c23 — higher, > 51.8 µg/mL
- O=C(CNC(=O)c1ccc(N2CCCC2=O)cc1)Nc1ccc(F)c(F)c1F — 1.8-fold higher, 5.5 µg/mL (≈ 14.1 µM)
- COc1ccc(C2C(C(C)=O)=C(O)C(=O)N2c2ccc(C)cc2)cc1 (stereo not given) — higher, > 50.6 µg/mL
- CCC1=C(C)CN(C(=O)NCCc2ccc(S(=O)(=O)NC(=O)NC3CCC(C)CC3)cc2)C1=O (stereo not given) — higher, > 73.6 µg/mL
- CCOc1ccc(S(=O)(=O)NCc2ccc3c(c2)OCO3)cc1C — 8.1-fold higher, 24.3 µg/mL (≈ 69.5 µM)
- CCOC(=O)C1=C(Nc2ccc(OC)cc2)OCC1=O — 13-fold higher, 39.5 µg/mL (≈ 142 µM)
- CC(=O)C(C)Oc1ccc(Cc2ncc(C(F)(F)F)cc2Cl)cc1 (stereo not given) — 4.4-fold higher, 13.1 µg/mL (≈ 36.6 µM)
- CCOC(=O)c1sc(S(C)(=O)=O)c2c1CCc1conc1-2 — within 1.5-fold, 4 µg/mL (≈ 12.2 µM)
- COc1ccc(NC(=O)NC2CCCc3ccccc32)c(OC)c1 (stereo not given) — 3-fold lower, 1 µg/mL (≈ 3.06 µM)
- COc1cc(C(=O)OCC(=O)N2CCCC2=O)cc(OC)c1C — higher, > 48.2 µg/mL
- CCS(=O)(=O)c1ccc(O)c(NC(=O)c2ccc(S(=O)(=O)N3CCCCCC3)cc2)c1 — 3.9-fold higher, 11.6 µg/mL (≈ 24.9 µM)
- O=C(NCc1ccccc1)c1csc(-c2cccnc2)n1 — higher, > 44.3 µg/mL
- Cc1ccc2nc(SCC(=O)Nc3nonc3N)[nH]c2c1 — 13-fold higher, 39 µg/mL (≈ 128 µM)
- NC(=O)COC(=O)c1ccccc1OCc1ccccc1 — higher, > 42.8 µg/mL
- O=C(NCc1csc(-c2cccs2)n1)c1ccsc1 — 15-fold higher, 45.9 µg/mL (≈ 150 µM)
- O=[N+]([O-])c1ccc(CSc2ncnc3ccccc23)cc1 — 1.9-fold higher, 5.6 µg/mL (≈ 18.8 µM)
- O=C(CN1CCOCC1)Nc1nc(-c2ccccc2)cs1 — 14-fold higher, 42.2 µg/mL (≈ 139 µM)
- O=C1NC(c2ccc(F)cc2)Oc2ccccc21 (stereo not given) — 2.1-fold higher, 6.4 µg/mL (≈ 26.3 µM)
- COc1ccc(S(=O)(=O)N2CCOc3ccccc32)cc1 — 5.9-fold higher, 17.6 µg/mL (≈ 57.6 µM)
- CO/N=C/c1c(-c2ccc(Cl)cc2)nc2cc(C)ccn12 — 10-fold lower, 0.3 µg/mL (≈ 1 µM)
- Cc1cccc(NC(=O)COc2ccc3c(c2)CCC3)n1 — within 1.5-fold, 2.4 µg/mL (≈ 8.5 µM)
- Brc1cnc2ccccc2c1N1CCCCC1 — 2.5-fold lower, 1.2 µg/mL (≈ 4.12 µM)
- CCOC(=O)CNC(=O)Cc1ccc(OC)cc1 — higher, > 37.7 µg/mL
- Cc1ccc(CONC(=O)c2ccc(C)cc2)cc1 — 6.7-fold higher, 20.2 µg/mL (≈ 79.1 µM)
- COc1ccc(-c2ccc3ccccc3n2)cc1 — lower, < 0.5 µg/mL
- Cc1ccc(C(=O)N2CCN(c3ncnc4c(C)csc34)CC2)cc1 — within 1.5-fold, 4.3 µg/mL (≈ 12.2 µM)
- COc1nc(Nc2cccc(F)c2)nc(OC)n1 — 4.3-fold higher, 12.8 µg/mL (≈ 51.2 µM)
- Cc1cccc(Nc2nc(Cl)ncc2F)c1C — 1.8-fold higher, 5.3 µg/mL (≈ 21.1 µM)
- Cc1noc(C)c1COC(=O)[C@@H](NC(=O)c1ccccc1)C(C)C — higher, > 49.6 µg/mL
- Cc1ccc2c(c1)sc1nc(=O)n(-c3ccccc3)c(=O)n12 — within 1.5-fold, 2.3 µg/mL (≈ 7.43 µM)
- CCCNC(=O)c1cccc(Br)c1 — higher, > 36.3 µg/mL
- COc1ccccc1C(=O)COC(=O)c1cnc(C)cn1 — higher, > 42.9 µg/mL
- O=C(O)/C=C/C(=O)N1CCc2ccccc21 — higher, > 32.6 µg/mL
- COc1ccc(CCNC(=O)COC(=O)Cc2ccccc2[N+](=O)[O-])cc1 — higher, > 55.9 µg/mL
- CCOC(=O)C1CCN(C(=O)/C(=C/c2ccccc2)NC(=O)c2ccccc2)CC1 — higher, > 61 µg/mL
- Clc1ccc(OCc2noc(-c3ccsc3)n2)c(Cl)c1 — lower, < 0.4 µg/mL
- Cc1cc(Cl)ccc1OCCCC(=O)OCC(N)=O — 14-fold higher, 42.3 µg/mL (≈ 148 µM)
- Cc1cc(OCC(=O)Nc2ccccc2C)no1 — higher, > 36.9 µg/mL
- O=C(O)CSc1nc2ccccc2n1-c1ccccc1 — higher, > 42.6 µg/mL
- CN(CC(=O)Nc1ccc(Br)cc1)Cc1ccccc1 — 8.5-fold higher, 25.4 µg/mL (≈ 76.2 µM)
- O=Cc1ccc(OCC(=O)Nc2ccccc2-c2ccccc2)cc1 — 3.8-fold lower, 0.8 µg/mL (≈ 2.41 µM)
- CCn1c(=O)cc(C(F)(F)F)[nH]c1=S — higher, > 33.6 µg/mL
- C=CCNC(=O)/C(C#N)=C/c1ccc(C(=O)O)cc1 — higher, > 38.4 µg/mL
- CCCc1cc(=O)[nH]c(SCC(=O)Nc2cc(S(=O)(=O)N3CCOCC3)ccc2N(CC)CC)n1 — higher, > 78.6 µg/mL
- Cc1cc(C)nc(NC(=S)NC(=O)c2ccccc2F)n1 — 2.7-fold higher, 8.1 µg/mL (≈ 26.6 µM)
- COc1ccc(C)cc1NC(=O)C(C)N1CCOCC1.Cl (stereo not given) — higher, > 47.2 µg/mL
- COc1cccc(S(=O)(=O)c2nc(C)c3c(n2)CCC3)c1 — higher, > 45.7 µg/mL
- COC(=O)[C@H](C)NC(=O)NCc1ccccc1 — higher, > 35.4 µg/mL
- O=[N+]([O-])C(/C=C(/Cl)[N+](=O)[O-])=C(N1CCCCC1)N1CCCCC1 — 9.7-fold higher, 29.1 µg/mL (≈ 84.4 µM)
- CCn1ccnc1C(O)(c1ccccc1)c1ccccc1 — higher, > 41.8 µg/mL
- CC1(C(=O)OCC(=O)Nc2ccccc2)CC1(Cl)Cl (stereo not given) — 12-fold higher, 35 µg/mL (≈ 116 µM)
- COc1cccc(CNC(=O)N2CCN(c3ccccc3)CC2)c1 — 6.8-fold higher, 20.5 µg/mL (≈ 63 µM)
- CCOC(=O)c1sc(NC(=O)CCc2ccccc2)nc1C — lower, < 0.3 µg/mL
- O=C1Nc2ccccc2/C1=C/c1ccnc2ccccc12 — within 1.5-fold, 3.5 µg/mL (≈ 12.9 µM)
- NC(=O)CN1CCN(Cc2ccc3c(c2)OCO3)CC1 — higher, > 41.6 µg/mL
